#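 Step 1: Grow cells in 96-well plates. Step 2: Expose to compound for 48 hours at 5 concentrations. Step 3: Interpolate endpoints linearly; if unreached, use highest concentration. GI50: concentration for 50% inhibition of growth.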 Active and inactive are the calls of the source. Cut-off read from the data, not from the text of the source: active = GI50 up to about 1.1 µM and inactive = higher.
# Experiments:
# Assay in all cases: growth of human tumour cells (NCI), 48 h
# A549 = test system: A549
# SN12C = test system: SN12C
# RXF 393 = test system: RXF 393
# RPMI-8226 = test system: RPMI-8226
# NCI-H226 = test system: NCI-H226
# CCRF-CEM = test system: CCRF-CEM
# 786-0 = test system: 786-0
# SK-MEL-2 = test system: SK-MEL-2
# DU-145 = test system: DU-145
# HCC 2998 = test system: HCC 2998
# U-251 = test system: U-251
# EKVX = test system: EKVX
# Malme-3M = test system: Malme-3M
# OVCAR-5 = test system: OVCAR-5
# UO-31 = test system: UO-31
# COLO 205 = test system: COLO 205
# MOLT-4 = test system: MOLT-4
# PC-3 = test system: PC-3
# T47D = test system: T47D
# SK-OV-3 = test system: SK-OV-3
# MDA-MB-231 = test system: MDA-MB-231
# SW-620 = test system: SW-620
# BT-549 = test system: BT-549
# HCT-116 = test system: HCT-116
# MDA-MB-435 = test system: MDA-MB-435
# MCF7 = test system: MCF7
# UACC-62 = test system: UACC-62
# CAKI-1 = test system: CAKI-1
# SNB-19 = test system: SNB-19
# Hs-578T = test system: Hs-578T
# SK-MEL-5 = test system: SK-MEL-5
# NCI-H522 = test system: NCI-H522
# M14 = test system: M14
# HT-29 = test system: HT-29
# MDA-N = test system: MDA-N
# SF-268 = test system: SF-268
# SF-539 = test system: SF-539
# HCT-15 = test system: HCT-15
# NCI/ADR-RES = test system: NCI/ADR-RES
# KM12 = test system: KM12
# SR = test system: SR
# LOX IMVI = test system: LOX IMVI
# SF-295 = test system: SF-295
# OVCAR-8 = test system: OVCAR-8
# K562 = test system: K562
# SNB-75 = test system: SNB-75
# HOP-62 = test system: HOP-62
# NCI-H23 = test system: NCI-H23
# HL-60 = test system: HL-60
# OVCAR-3 = test system: OVCAR-3
# SK-MEL-28 = test system: SK-MEL-28
# IGROV-1 = test system: IGROV-1
# OVCAR-4 = test system: OVCAR-4
# TK-10 = test system: TK-10
# HOP-92 = test system: HOP-92
# ACHN = test system: ACHN
# UACC-257 = test system: UACC-257
# NCI-H460 = test system: NCI-H460
smiles,measurement,setting,value
Clc1cc2ncn(C3CCCCO3)c2cc1Cl (configuration not stated),GI50,A549,47.8 µM (inactive)
same,GI50,SN12C,99.1 µM (inactive)
same,GI50,RXF 393,44.7 µM (inactive)
same,GI50,RPMI-8226,66.8 µM (inactive)
same,GI50,NCI-H226,17.5 µM (inactive)
same,GI50,CCRF-CEM,56.2 µM (inactive)
same,GI50,786-0,71.6 µM (inactive)
same,GI50,SK-MEL-2,> 100 µM (inactive)
same,GI50,DU-145,81.8 µM (inactive)
same,GI50,HCC 2998,64.6 µM (inactive)
same,GI50,U-251,39.5 µM (inactive)
same,GI50,EKVX,20 µM (inactive)
same,GI50,Malme-3M,> 100 µM (inactive)
same,GI50,OVCAR-5,> 100 µM (inactive)
same,GI50,UO-31,16.1 µM (inactive)
same,GI50,COLO 205,77.3 µM (inactive)
same,GI50,MOLT-4,33.9 µM (inactive)
same,GI50,PC-3,34.6 µM (inactive)
same,GI50,T47D,44.6 µM (inactive)
same,GI50,SK-OV-3,> 100 µM (inactive)
same,GI50,MDA-MB-231,74.1 µM (inactive)
same,GI50,SW-620,53.7 µM (inactive)
same,GI50,BT-549,22.2 µM (inactive)
same,GI50,HCT-116,51.9 µM (inactive)
same,GI50,MDA-MB-435,75.9 µM (inactive)
same,GI50,MCF7,74 µM (inactive)
same,GI50,UACC-62,53.5 µM (inactive)
same,GI50,CAKI-1,39.4 µM (inactive)
same,GI50,SNB-19,> 100 µM (inactive)
same,GI50,Hs-578T,23.6 µM (inactive)
same,GI50,SK-MEL-5,38.4 µM (inactive)
same,GI50,NCI-H522,4.7 µM (inactive)
same,GI50,M14,71.8 µM (inactive)
same,GI50,HT-29,35.9 µM (inactive)
same,GI50,MDA-N,65.8 µM (inactive)
same,GI50,SF-268,34.6 µM (inactive)
same,GI50,SF-539,96.4 µM (inactive)
same,GI50,HCT-15,63.2 µM
same,GI50,NCI/ADR-RES,36.9 µM (inactive)
same,GI50,KM12,14.2 µM (inactive)
same,GI50,SR,28.1 µM (inactive)
same,GI50,LOX IMVI,32.5 µM (inactive)
same,GI50,SF-295,70.5 µM (inactive)
same,GI50,OVCAR-8,56.6 µM (inactive)
same,GI50,K562,46.2 µM (inactive)
same,GI50,SNB-75,11.7 µM (inactive)
same,GI50,HOP-62,69.8 µM (inactive)
same,GI50,NCI-H23,70.3 µM (inactive)
same,GI50,HL-60,30.1 µM (inactive)
same,GI50,OVCAR-3,41 µM (inactive)
same,GI50,SK-MEL-28,39.4 µM (inactive)
same,GI50,IGROV-1,20.1 µM (inactive)
same,GI50,OVCAR-4,48.9 µM (inactive)
CCOC(=O)/C=C(\C(=O)OCC)n1cc(C)c(=O)n(Cc2cn(COCCOC(C)=O)nn2)c1=O,GI50,A549,27.5 µM (inactive)
same,GI50,SN12C,18.1 µM (inactive)
same,GI50,RXF 393,11.6 µM (inactive)
same,GI50,TK-10,4.97 µM (inactive)
same,GI50,RPMI-8226,5.09 µM (inactive)
same,GI50,NCI-H226,> 10 µM (inactive)
same,GI50,CCRF-CEM,1.85 µM (inactive)
same,GI50,786-0,5.46 µM (inactive)
same,GI50,SK-MEL-2,17.3 µM (inactive)
same,GI50,DU-145,34.9 µM (inactive)
same,GI50,HCC 2998,22.9 µM (inactive)
same,GI50,U-251,16.8 µM (inactive)
same,GI50,EKVX,10.5 µM (inactive)
same,GI50,OVCAR-5,14.5 µM (inactive)
same,GI50,UO-31,14 µM (inactive)
same,GI50,COLO 205,2.86 µM (inactive)
same,GI50,MOLT-4,3.79 µM (inactive)
same,GI50,PC-3,20 µM (inactive)
same,GI50,HOP-92,1.61 µM (inactive)
same,GI50,T47D,21.3 µM (inactive)
same,GI50,SK-OV-3,71.8 µM (inactive)
same,GI50,MDA-MB-231,20.1 µM (inactive)
same,GI50,SW-620,2.94 µM (inactive)
same,GI50,BT-549,10.6 µM (inactive)
same,GI50,ACHN,7.62 µM (inactive)
same,GI50,HCT-116,20.5 µM (inactive)
same,GI50,MDA-MB-435,6.55 µM (inactive)
same,GI50,MCF7,6.78 µM (inactive)
same,GI50,UACC-62,17.8 µM (inactive)
same,GI50,CAKI-1,2.84 µM (inactive)
same,GI50,SNB-19,19 µM (inactive)
same,GI50,Hs-578T,17.1 µM (inactive)
same,GI50,SK-MEL-5,20.9 µM (inactive)
same,GI50,HT-29,7.33 µM (inactive)
same,GI50,MDA-N,20.2 µM (inactive)
same,GI50,SF-268,14.7 µM (inactive)
same,GI50,SF-539,3.61 µM (inactive)
same,GI50,HCT-15,6.93 µM
same,GI50,NCI/ADR-RES,22.6 µM (inactive)
same,GI50,KM12,16.2 µM (inactive)
same,GI50,UACC-257,17.4 µM (inactive)
same,GI50,SR,1.44 µM (inactive)
same,GI50,LOX IMVI,15.9 µM (inactive)
same,GI50,SF-295,19.5 µM (inactive)
same,GI50,OVCAR-8,8.43 µM (inactive)
same,GI50,K562,5.69 µM (inactive)
same,GI50,NCI-H460,10.2 µM (inactive)
same,GI50,SNB-75,21 µM (inactive)
same,GI50,HOP-62,20.3 µM (inactive)
same,GI50,NCI-H23,14.7 µM (inactive)
same,GI50,OVCAR-3,13.2 µM (inactive)
same,GI50,SK-MEL-28,10.5 µM (inactive)
same,GI50,IGROV-1,16.7 µM (inactive)
same,GI50,OVCAR-4,23.3 µM (inactive)

# — ChEMBL document CHEMBL1201862, “PubChem BioAssay data set” (2004)
